Results on 2 compounds are retold here after patent US9394295B2, “Antibacterial homopiperidinyl substituted 3,4-dihydro-1H-[1,8]naphthyridinones” (Janssen Sciences Ireland UC, priority 2011, dated 2016).

The term pIC50 denotes the IC50 on a negative log10 scale, so that one unit is a factor of ten. A higher pIC50 goes with a small IC50. A word on the CC50: it is the concentration that lowers cell viability or growth by half. What is called AUC(0-inf) is the area under the concentration-time curve extrapolated to infinity. A lower AUC(0-inf) goes with low exposure. As usually defined, the bioavailability is the share of a dose that reaches the circulation, judged against a reference dose that is usually intravenous. In general, Tmax refers to the time from dosing to the highest level. The term Cmax denotes the maximum level reached in the sampled fluid or tissue.

The target in data set [1] is T1, S. aureus ATCC 29213 FabI (Staphylococcus aureus, UniProt Q6GI75).
T1 sequence (Q6GI75 1-256): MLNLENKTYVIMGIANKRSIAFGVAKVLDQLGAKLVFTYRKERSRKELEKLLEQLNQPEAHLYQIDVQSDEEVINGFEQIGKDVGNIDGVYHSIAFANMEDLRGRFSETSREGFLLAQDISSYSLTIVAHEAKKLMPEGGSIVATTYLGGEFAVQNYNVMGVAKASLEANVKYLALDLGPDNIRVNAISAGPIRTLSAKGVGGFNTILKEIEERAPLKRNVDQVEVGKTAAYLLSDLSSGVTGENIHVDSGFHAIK
Briefly: Staphylococcus aureus FabI enzyme inhibition assay. In kind it is biochemical. The following applies: 30 minutes at room temperature, NADH consumption. As for the experimental part: FabI enzyme inhibition assays were carried out in half-area, 384-well microtitre plates. Compounds were evaluated in 40-μl assay mixtures containing 100 mM NaADA, pH 6.5 (ADA=N-[2-acetamido]-2iminodiacetic acid), 250 μM crotonoyl-CoA, 625 μM NADH and 50 μg/ml S. aureus ATCC 29213 FabI Inhibitors were typically varied over the range of 50 to 0.39 μM. The reaction mixtures were incubated for 30 minutes at room temperature and the reaction was stopped by adding 200 mM Tris buffer (pH 9.0) to create a pH-shift. The consumption of NADH was monitored by measuring the change in absorbance at […]. By comparing sample readings to those of negative (absence of compound) and positive (absence of enzyme) controls, the percent inhibition of enzymatic activity of the compounds was determined. A best-fit curve is fitted by a minimum of squares method. From this an IC50-value (expressed in μg/ml), resulting in 50% inhibition of enzymatic activity, was obtained.

Data set [2] in a line: Cytotoxicity MTT assay (TOX HELAM). The format is cell-based. The following applies: human, HelaM cells, read-out: TOX HELAM (222.125) CC50. As for the experimental part: Cytotoxicity of the compounds was evaluated using the MTT assay. Human HelaM cells grown in 96-well plates were exposed to serial dilutions of the tested compounds (final volume of 0.2 ml) and incubated for 72 hours at 37° C. and 5% CO2. Inhibitors are typically varied over the range of 25 to 0.8 μM. The final DMSO concentration in the assay is 0.5%. MTT (3-(4,5-Dimethylthiazol-2-yl)-2,5-diphenyltetrazolium bromide, a tetrazole) was added and reduced to purple formazan only in living cells. Solubilization of the formazan crystals was achieved by adding 100 μl 2-propanol. Cell viability was determined by measuring the absorbance of the reduced formazan, giving a purple color, at 540 nm and 690 nm. The absorbance measured at 690 nm was automatically subtracted from the absorbance at 540 nm, to eliminate the effects of non-specific absorption. The percent cytotoxicity achieved by the compounds was calculated according to standard methods. Cytotoxicity is reported as CC50, the concentration that causes a 50% reduction in cell viability.
The results are depicted in the table D2 below (TOX HELAM).
(Formazan colour is commonly taken as a measure of viable cells.)

In data set [3] the test system is E. coli tolC mutant. Briefly: MIC broth microdilution (CLSI), E. coli tolC mutant. The format is cell-based. The conditions noted are these: Escherichia coli. As for the experimental part: (§1) Minimum Inhibitory Concentrations (MICs) were determined in accordance with the Clinical and Laboratory Standards Institute (CLSI) methodology against aerobic bacteria (CLSI M07-A8) (see Clinical and Laboratory Standards Institute. 2009. Methods for dilution antimicrobial susceptibility tests for bacteria that grow aerobically. CLSI document M07-A8, Vol. 29, No. 2.) by the broth microdilution method with cation-adjusted Mueller-Hinton broth (CA-MHB) medium for the majority of organisms, except for Haemophilus influenza, where Haemophilis test medium (HTM) broth was used. Descriptions of the individual organisms can be found in the table. Where possible, ATCC standard strains were tested.
(§2) The inoculum density for the susceptibility testing was standardized to give a final inoculum of approximately 5×10^5 CFU/mL.
(§3) Stock solutions of the compounds were prepared in DMSO at concentrations of 1 mg/mL. Linezolid was prepared in DMSO at a concentration of 2 mg/mL. Stock solutions of all compounds were diluted into CA-MHB to give a range of two-fold dilutions, depending upon the sensitivity of the organism being tested.

For data set [4], the system named is H. influenza ATCC 49247. Briefly: MIC broth microdilution (CLSI), H. influenza ATCC 49247. In kind it is cell-based. The conditions noted are these: Haemophilus influenzae, ATCC49247, HTM broth. As for the experimental part: as §1, §2, §3
(In general: Dilution methods test growth across graded concentrations, often in twofold steps.)

The subject of data set [5] is M. catarrhalis ATCC 8176. In words: MIC broth microdilution (CLSI), M. catarrhalis ATCC 8176. The format is cell-based. The conditions noted are these: Moraxella catarrhalis, ATCC8176. As for the experimental part:
as §1, §2, §3

A short description of data set [6]: In vivo pharmacokinetic and oral bioavailability. The following applies: male Swiss mice; for half-life: read-out: Half life (t1/2) (converted). As for the experimental part: The in vivo pharmacokinetics and oral bioavailability of the compound of the examples was/is investigated in male Swiss mice (fed) following single intravenous (i.v.) bolus and oral (p.o.) administration. For the i.v. and p.o. solution formulations, the compound was/is dissolved in a 20% HP-β-CD solution. The pH of the formulations was/is around pH 4. All i.v. formulations were isotonic.

The mark [7] stands for this setting: mouse, plasma, iv, i.v. 2.5 mg/kg.
Where [8] appears, read: mouse, plasma, po, p.o. 10 mg/kg.

pIC50: −log10 of the molar value. In brackets after ≈: the same amount, converted by molar mass. Read-outs that look alike come from different tables or passages of the source.

Consider `O=C1CCc2cc(/C=C/C(=O)N3CCC=C(c4ccccc4)CC3)cnc2N1` [Co. No. 2], for which the pIC50 in data set [1] is 6.05. The CC50 at 72 h in data set [2] was above 9.38 µg/mL. Moreover, the MIC90 in data set [3] worked out at 0.25 µg/mL (≈ 0.669 µM).

With `COc1ccc(F)cc1C1=CCCN(C(=O)/C=C/c2cnc3c(c2)CCC(=O)N3)CC1` [Co. No. 27], the pIC50 in data set [1] was 5.97. Moreover, the CC50 at 72 h in data set [2] is above 10.6 µg/mL. For the same compound, the MIC90 in data set [3] is above 8 µg/mL; in data set [4], above 8 µg/mL; in data set [5] it was 1 µg/mL (≈ 2.37 µM). This compound also gave a Vdz in data set [6] (i.v. 2.5 mg/kg) of 1.2 L/kg. The figures for the AUC(0-inf) in data set [6] (setting [7]) and in data set [6] (setting [8]) were 3560 ng·h/mL and 12600 ng·h/mL, respectively. Besides, the C0 in data set [6] (mouse, plasma, iv, i.v. 2.5 mg/kg, 20% HP-β-CD solution) came out at 3350 ng/mL. Also, the half-life is 1.1 h in data set [6] (setting [7]) and 2 h in data set [6] (setting [8]). Moreover, the clearance in data set [6] (mouse, plasma, iv, i.v. 2.5 mg/kg, read-out: Plasma clearance Cl (converted)) is 12.5 mL/min/kg. Besides, in data set [6] (mouse, plasma, po, p.o. 10 mg/kg vs i.v. 2.5 mg/kg), the bioavailability worked out at 89%. In data set [6] (setting [8]), the Tmax came to 0.5 h. The compound further came in with a Cmax in data set [6] (mouse, plasma, po, p.o. 10 mg/kg, 20% HP-β-CD solution) of 4640 ng/mL.
